Key:
AD-MSC = assay: Tuj1 immunochemical assay, AD-MSC; assay type: cell-based, human; details: 10, 20 or 30 μM, 5 days
Method: (§1) To determine whether transdifferentiation into ciNSC5, neural progenitor cells, occurred similarly even in MSCs of different origins when human UCB-MSCs were treated with YJ101, YJ102, or YJ103 for 5 days, the expression of neuronal markers in differentiated ciNSC5 was confirmed by immunochemical assay using MSCs from human adipose-derived mesenchymal stem cells (AD-MSCs), human bone marrow-derived mesenchymal stem cells ([…]) and human umbilical cord blood-derived mesenchymal stem cells (UCB-MSCs; Promo Cells). Specifically, AD-MSC (StemPro™ Human Adipose-Derived Stem Cell, Gibco, Passage #6) was incubated in a MesenPRO RS™ medium, BM-MSC (ATCC, Passage #6) was incubated in a Mesenchymal Stem Cell Basal Medium for Adipose, Umbilical and Bone Marrow-derived MSC (Cat. PCS-500-030, ATCC) medium, and UCB-MSC (Promo Cell, Passage #6) was incubated in a CellCor™ CD MSC (Cat. YSP001, Xell Therapeutics) medium, and then dispensed at 2.1×10^4 cells/well in a 12-well plate with an 18 mm cover glass (circular) (DMSO control group was dispensed at 3.5×10^3 cells/well). […] The culture medium was removed, washed with PBS, and then fixed with 4% paraformaldehyde at room temperature for 10 minutes. After washed three times with PBS, the cells were permeabilized with PBS-T containing 0.5% Triton X-100 for 10 minutes, washed with PBS-T three times for 10 minutes each, and then blocked with a blocking solution (PBS-T containing 5% BSA and 5% goat serum) for 1 hour. Thereafter, the cells were treated with anti-Tuj1 antibody (Cat. 801201, BioLegend) diluted 1/5000 in a blocking solution and incubated at 4° C. overnight. The next day, the cells were washed 10 times for 10 minutes each with PBS-T, and then treated with anti-mouse IgG-cy3 diluted 1/2000 in a blocking solution, and incubated for 1 hour in dark conditions. Next, the cells were washed 10 times for 10 minutes each with PBS-T, mounted with a mounting solution containing DAPI, and then observed with a confocal microscope.

[1] = test system: HES1, Sox2 and OCT4 gene promoters (CtBP1, CtBP1-LSD1 complex); assay: ChIP assay, target genes of CtBP1-YJ102; assay type: cell-based, human; details: YJ102, 2 days, UCB-MSC
Method: To identify a target gene of CtBP1-YJ102 in human UCB-MSC, chromatin immunoprecipitation (ChIP) assay was performed. Specifically, 2×10^6 human UCB-MSCs were dispensed into a 100 mm culture dish, treated with 10 μl of YJ102 (30 mM) or DMSO (control) the next day, and incubated for 2 days. For cross-linking and DNA sharing, the cells were added with formaldehyde to be 1% to the culture dish in which UCB-MSCs were incubated and incubated at 37° C. for 10 minutes to be fixed. The culture medium was removed and washed twice with PBS containing a protease inhibitor to collect the cells. The cells were centrifuged at 3000 rpm at 4° C. for 5 minutes to remove the supernatant, and the cells were added with an SDS lysis buffer containing a protease inhibitor, incubated on ice for 10 minutes, and lysed by ultrasound. The cells were centrifuged at 13,000 rpm at 4° C. for 10 minutes, the supernatant was transferred to a new microcentrifuge tube, and added with 1/10 volume of ChIP Dilution Buffer. Thereafter, DNA was purified and subjected to agarose gel electrophoresis to confirm that the DNA was shared at 200 to 1000 bp. In addition, for chromatin immunoprecipitation, the Protein G agarose slurry was washed with PBS, blocked with 1 ml of 1% BSA, and then washed with PBS, added with a cell lysate lysed by ultrasound and primary antibodies included anti-CtBP1 antibody (Cat. 07-306, Millipore), anti-LSD1 antibody (Cat. A1156, Abclonal), and Normal rabbit IgG (Cat. 12-370, Merck Millipore) (control group) at 1 μg each, and then incubated using a rotator overnight at 4° C. The next day, the supernatant was removed by centrifugation, and DNA-antibody-agarose beads were washed once with Low Salt Immune Complex Wash Buffer; High Salt Immune Complex Wash Buffer; and LiCl Immune Complex Wash Buffer in sequence, and then washed twice with 1×TE. The DNA-antibody-agarose beads were added with 250 μl of elution buffer (1% SDS, 0.1M NaHCO3), incubated at room temperature for 15 minutes using a rotator, and centrifuged, and the supernatant was transferred to a new microcentrifuge tube. The elution process was repeated one more time and the eluate was mixed. The eluate was added with 20 μl of 5 M NaCl, heated at 65° C. for 4 hours, and then added with 10 μl of 0.5 M EDTA, 20 μl of 1 M Tris-HCl (pH 6.5), and 2 μl of proteinase K (10 mg/ml) and incubated at 45° C. for 1 hour. Phenol/chloroform extraction and ethanol precipitation were performed, the DNA pellet was resuspended in DW, and then real-time quantitative PCR was performed using primers shown in Table 2 below.

UCB-MSCs = assay: CellTiter-Glo proliferation assay; assay type: cell-based, human; details: 10, 20, or 40 μM; 3 or 5 days
Method: Thereafter, 100 μl of a CellTiter-Glo reagent prepared by mixing a CellTiter-Glo Buffer with a CellTiter-Glo substrate was added to each well of a 96-well plate, covered with a plate cover, and incubated at room temperature for 30 minutes.

human UCB-MSCs = assay: Tuj1 immunochemical assay with CtBP inhibitors; assay type: cell-based; details: 30 μM, 5 days
Method: To determine CtBP1-mediated ciNSC5 differentiation by YJ102 in human UCB-MSCs, a CTBP1 mechanism by treatment with NSC95397 or 4-methylthio-2-oxobutanoate (MTOB) was analyzed by immunochemical assay. Specifically, UCB-MSCs were dispensed at 2.1×10^4 cells/well in a 12-well plate containing an 18 mm cover glass (circular) (a DMSO control group was dispensed at 3.5×10^3 cells/well). […] The culture medium was removed, washed with PBS, and fixed with 4% paraformaldehyde at room temperature for 10 minutes. After washed three times with PBS, the cells were permeabilized with PBS-T containing 0.5% Triton X-100 for 10 minutes, washed with PBS-T three times for 10 minutes each, and then blocked with a blocking solution (PBS-T containing 5% BSA and 5% goat serum) for 1 hour. Thereafter, the cells were treated with anti-Tuj1 antibody (Cat. 801201, BioLegend) diluted 1/5000 in a blocking solution and incubated at 4° C. overnight. The next day, the cells were washed 10 times for 10 minutes each with PBS-T, and then treated with anti-mouse IgG-cy3 (Cat. 111-165-003, Jackson ImmunoResearch) diluted 1/2000 in a blocking solution, and incubated for 1 hour in dark conditions. Next, the cells were washed 10 times for 10 minutes each with PBS-T, mounted with a mounting solution containing DAPI, and then observed with a confocal microscope.

BM-MSC = assay: Tuj1 immunochemical assay, BM-MSC; assay type: cell-based, human; details: 10, 20 or 30 μM, 5 days
Method: as §1

CtBP1-LSD1 complex binding to Sox2 gene promoter [1]: bound to a Sox2 gene promoter
CtBP1 binding to HES1 gene promoter [1]: increased
amount of CtBP1-LSD1 complex binding to OCT4 gene promoter [1]: increased
Compound: CCc1ccc(N(C(=O)COC)c2nc3cc(Cl)ccc3o2)cc1 [YJ102]
expression of Tuj1 (AD-MSC): increased
HES1 expression [1]: decrease HES1 expression
OCT4 expression [1]: induce the expression of OCT4
Sox2 expression [1]: increase Sox2 expression
cell proliferation (CellTiter-Glo) (UCB-MSCs): reduced cell proliferation in a concentration-dependent manner
differentiation of UCB-MSCs into ciNSC5 through CtBP1 regulation (human UCB-MSCs): differentiated UCB-MSCs into ciNSC5
expression of Tuj1 (BM-MSC): increased
